Laboratory results as given in patent US11691960B2, “2-[thiophen-2-yl)formamido]-N-(phenyl)-2-methylpropanamide derivatives and the use thereof as medicament” (Boehringer Ingelheim International GmbH, priority 2020, dated 2023).

Key:
human Factor Xa = human Factor Xa (Homo sapiens (Human), UniProt P00742); assay: Assay C: human Factor Xa chromogenic substrate assay; type: biochemical; details: for IC50: human Factor Xa 0.86 nM, chromogenic substrate S2765; for Selectivity Assay C/Assay A: ratio IC50 Factor Xa / IC50 IDO1
human Factor Xa, sequence (P00742 235-488): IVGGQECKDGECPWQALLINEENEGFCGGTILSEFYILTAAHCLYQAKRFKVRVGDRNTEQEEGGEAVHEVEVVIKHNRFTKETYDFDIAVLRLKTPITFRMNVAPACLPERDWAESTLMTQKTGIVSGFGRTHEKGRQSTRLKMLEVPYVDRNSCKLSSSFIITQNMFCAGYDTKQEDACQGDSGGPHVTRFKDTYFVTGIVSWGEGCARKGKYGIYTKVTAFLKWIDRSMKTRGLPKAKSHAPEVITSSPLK
human Factor Xa, sequence (P00742 41-179 partner): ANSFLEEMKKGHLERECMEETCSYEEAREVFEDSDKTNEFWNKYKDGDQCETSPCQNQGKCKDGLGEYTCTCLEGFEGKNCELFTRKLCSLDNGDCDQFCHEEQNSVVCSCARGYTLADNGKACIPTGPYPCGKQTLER
Protocol: Assay C. In Vitro Testing of Human Factor Xa Potency:
Measurement of active human Factor Xa using a specific chromogenic substrate which is labeled with a p-nitro-anilino group (pNA). The cleavage in between the binding of the peptide substrate and the pNA-group is followed by a color change, which can be detected at 405 nm. The amount of cleaved substrate is directly proportional to the amount of active Xa.
[…] (100 U) human Factor Xa (Enzyme Research Laboratories; HFXa1011) were solved in 0.444 ml H2O (Millipore), which accords to a stock solution of 19.28 μM or 225 U/ml. Further dilutions were made in the assay buffer (Tris 100 mM, NaCL 150 mM, adjusted to a pH of 7.8 with HCL, containing 0.1% BSA and 0.05% Tween20). 25 mg (1 vial) of the chromogenic substrate S2765 (Chromogenix; S2765) was solved in 3.5 ml H2O (Millipore) to achieve a stock solution of 10 mM.
Compounds were solved and diluted in DMSO where the final dilution in the assay is 1:10 resulting in a final concentration of 1% DMSO.
• the prefinal dilution step was 1:10 in the assay buffer containing 11% DMSO resulting in 10% DMSO • final dilution in the assay is 1:10 resulting in a final concentration of 1% DMSO
Compounds were tested at final concentrations of 10 μM to 0.003 nM or lower. 5 μl human factor Xa (final concentration 0.86 nM), 2 μl compound dilution or assay buffer (containing 10% DMSO) and 8 μl assay buffer were pipetted in triplicates into a 384-well plate and incubated in the Thermomix at 24° C. for 10 minutes.
After addition of 5 μl chromogenic substrate (final concentration 0.5 mM) the enzyme-substrate reaction started and the kinetic measurement with the SpectraMax Monochromator was started within 1-2 minutes. • Parameter of measurement: (Spectra ax, Monochromator) • Absorbance; 1.LM 405 nM • Kinetic: 16 min each 2nd minute (9 times) • Negative Control (NC) 5 μl human factor Xa+10 μl assay buffer+5 μl Substrate • Positive Control (PC): 5 μl human factor Xa+2 μl Nafamostat (commercially available, final concentration: 1 μM)+8 μl assay buffer+5 μl Substrate • Blank (optional): 15 μl assay buffer+5 μl Substrate
Calculation of IC50, KI and the % effect at the highest concentration (Ratio)
For the calculation the average of the Vmax-values in between 120 sec to 720 sec were taken.
A x/y-Plot was created: x=log (M, Compound); y=vmax (drfu/min)
The data were analyzed with the curve fitting model: log (inhibitor) vs. response—Variable slope (four parameters)
The results of this fit were Top, Bottom, Log (IC50, M), Hillslope and IC50 (M)

human androgen receptor = human androgen receptor (Homo sapiens (Human), UniProt P10275); assay: Assay B: human androgen receptor luciferase reporter assay (Indigo Biosciences); type: cell-based; details: for Selectivity Assay B/Assay A: ratio IC50 androgen receptor / IC50 IDO1
human androgen receptor, sequence (P10275 whole entry): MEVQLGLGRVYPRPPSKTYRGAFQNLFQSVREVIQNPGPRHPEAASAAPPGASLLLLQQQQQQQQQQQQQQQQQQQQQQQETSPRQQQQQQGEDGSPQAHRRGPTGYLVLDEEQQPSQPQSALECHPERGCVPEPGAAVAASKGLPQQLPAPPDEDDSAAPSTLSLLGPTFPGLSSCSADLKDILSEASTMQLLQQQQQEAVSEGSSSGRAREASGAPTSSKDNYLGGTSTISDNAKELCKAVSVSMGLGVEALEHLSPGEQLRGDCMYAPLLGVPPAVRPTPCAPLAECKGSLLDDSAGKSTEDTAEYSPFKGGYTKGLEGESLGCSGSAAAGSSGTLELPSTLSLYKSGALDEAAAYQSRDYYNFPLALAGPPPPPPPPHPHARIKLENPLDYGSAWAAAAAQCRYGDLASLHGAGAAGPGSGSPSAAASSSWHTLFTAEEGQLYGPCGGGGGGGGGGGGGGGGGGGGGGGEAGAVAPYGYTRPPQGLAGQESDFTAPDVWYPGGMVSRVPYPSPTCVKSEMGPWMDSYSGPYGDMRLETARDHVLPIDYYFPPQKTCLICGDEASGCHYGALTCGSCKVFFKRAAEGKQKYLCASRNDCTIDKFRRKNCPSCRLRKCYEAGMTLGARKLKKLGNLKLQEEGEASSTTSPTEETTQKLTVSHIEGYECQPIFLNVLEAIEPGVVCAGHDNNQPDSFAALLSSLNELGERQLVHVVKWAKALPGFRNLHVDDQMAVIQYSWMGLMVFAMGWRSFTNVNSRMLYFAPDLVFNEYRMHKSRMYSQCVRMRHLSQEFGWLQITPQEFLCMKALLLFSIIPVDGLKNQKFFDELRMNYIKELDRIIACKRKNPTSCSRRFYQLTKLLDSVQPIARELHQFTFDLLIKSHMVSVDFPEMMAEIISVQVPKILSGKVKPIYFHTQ
Text: Assay B. In Vitro Testing of Androgen Receptor Potency:
The human androgen receptor (AR) assay was run using Product #IB03001 from Indigo Biosciences. The cell line provided in this kit carries a reporter gene, induced upon AR stimulation. This reporter gene is cDNA encoding for beetle luciferase, a 62 kD protein originating from the North American firefly (Photinus pyralis). This luciferase catalyzes the mono-oxidation of D-luciferin yielding oxyluciferin, adenosine monophosphate, pyrophosphate, CO2, and photon emission. The luminescence intensity of the reaction is quantified using a luminometer.
To run the assay, the cells are thawed by adding pre-warmed cell recovery medium to each tube, then placed in a 37° C. water bath. 30000 viable cells in 200 μl are plated (collagen coated plates) and incubated at 37° C., ≥85% humidity, 5% CO2 for 24 hours. Media is replaced with compound screening medium. Cells are then challenged with 125 pM (EC80) 6a-Fl Testosterone and compounds are applied in half logarithmic dilutions from 10 μM to 10 nM. Assay plates are then incubated at 37° C., ≥85% humidity, 5% CO2 for 22-24 hours. Media is replaced with luciferase detection reagent and allowed 5 minutes to equilibrate prior to luminescence quantification.
Data Analysis consisted of calculating percentage of control between 100% (Negative control:6a-Fl Testosterone) and 0 (positive control: no 6a-FL Testosterone). Fitting of normalized values was made 4-Parameter sigmoidal binding curve (Log[conc]) vs. signal.

human hepatocytes = assay: Assay D: metabolic stability in human hepatocytes; type: in vitro ADME; details: for Hepatocyte stability Assay D: human hepatocytes, 1 μM, % of liver blood flow, mean +− standard deviation
Protocol: Assay D. Assessment of Metabolic Stability in Human Hepatocytes
The metabolic degradation of the test compound is assayed in a hepatocyte suspension. After recovery from cryopreservation, human hepatocytes are incubated in Dulbecco's modified eagle medium supplemented with 3.5 μg glucagon/500 mL, 2.5 mg insulin/500 mL and 3.75 mg/500 mL hydrocortisone) containing 5% or 50% human serum or in absence of serum.
Following a 30 min preincubation in a cell culture incubator (37° C., 10% CO2), 5 μl of test compound solution (80 μM; derived from a 2 mM DMSO stock solution by dilution 1:25 with medium) are added into 395 μl hepatocyte suspension, resulting in a final cell density of 1 Mio cells/mL, a final test compound concentration of 1 μM, and a final DMSO concentration of 0.05%.
The cells are incubated for six hours (incubator, orbital shaker) and samples (25 μl) are removed from the incubation after 0, 0.5, 1, 2, 4 and 6 hours. Samples are transferred into acetonitrile and pelleted by centrifugation (5 min). The supernatant is transferred to a new 96-deepwell plate, evaporated under nitrogen and resuspended prior to analysis of decline of parent compound by HPLC-MS/MS.
CLint is calculated as follows: CL_INTRINSIC=k/CD×1000/60 k: slope of the regression line for parent decline [h^−1], CD: cell density of vital cells [10e6 cells/mL],
The calculated in vitro hepatic intrinsic clearance is scaled up to the intrinsic in vivo hepatic Clearance and used to predict hepatic in vivo blood clearance (CL) by the use of a liver model (well stirred model): CL_INTRINSIC_INVIVO [ml/min/kg]=(CL_INTRINSIC [μL/min/10e6 cells]×hepatocellularity [10e6 cells/g liver]×liver factor [g/kg bodyweight])/1000 CL[ml/min/kg]=CL_INTRINSIC_INVIVO [ml/min/kg]×hepatic blood flow [ml/min/kg]/(CL_INTRINSIC_INVIVO[ml/min/kg]+hepatic blood flow [ml/min/kg])
Results are expressed as percentage of hepatic blood flow: QH[%]=CL[ml/min/kg]/hepatic blood flow [ml/min/kg])
Hepatocellularity, human: 120×10e6 cells/g liver
Liver factor, human: 25.7 g/kg bodyweight
Blood flow, human: 20.7 ml/(min×kg)

IC50 (human Factor Xa)	Selectivity Assay C/Assay A (human Factor Xa)	Hepatocyte stability Assay D (human hepatocytes)	IC50 (human androgen receptor; challenge with 125 pM (EC80) 6a-Fl Testosterone, mean +− standard deviation)	inhibition of the human Factor Xa enzyme (in words) (human Factor Xa)	SMILES	Selectivity Assay B/Assay A (human androgen receptor)	antiandrogenic activity (in words) (human androgen receptor)	metabolic stability in human hepatocytes (in words) (human hepatocytes)
> 10 µM	>57	<4.1 % QH	–	–	CC(C)(NC(=O)c1ccc(Br)s1)C(=O)Nc1ccc(Cl)c(F)c1 [Example 1, 2-[(5-bromothiophen-2-yl)formamido]-N-(4-chloro-3-fluorophenyl)-2-methylpropanamide]	43	–	–
> 10 µM	>52	<4.1 % QH	> 10 µM	–	CC(C)(NC(=O)c1ccc(Br)s1)C(=O)Nc1ccc(Br)cc1 [Example 2, 2-[(5-bromothiophen-2-yl)formamido]-N-(4-bromophenyl)-2-methylpropanamide]	>52	–	–
–	–	–	–	–	CC(C)(NC(=O)c1cccs1)C(=O)Nc1ccc(C#N)c(C(F)(F)F)c1 [WO98/22432 example 53]	0.7	have antiandrogenic activity	very low metabolic stability
–	–	–	–	–	Cc1ccc(C(=O)NC(C)(C)C(=O)Nc2ccc(C#N)c(C(F)(F)F)c2)s1 [WO98/22432 example 86]	4.9	have antiandrogenic activity	very low metabolic stability
0.429 µM	0.37	–	–	inhibits the human Factor Xa enzyme	CC1CCC(C)N1c1ccc(NC(=O)C(C)(C)NC(=O)c2ccc(Cl)s2)cc1 (stereo not shown) [WO2005/111013 Ex. 22]	–	–	medium metabolic stability
